Experimental data reported in EP4741383A1, “COMPOUND AND USE THEREOF AS ANTI-CANCER DRUG” (Tyligand Bioscience (Shanghai) Limited, priority 2023, dated 2025).

Legend:
A20 = assay: CellTiter-Glo cell proliferation inhibition, A20; format: cell-based; details: A20 (mouse B-cell lymphoma cell line), 72 hours; read-out: Example IC50 (µM) A20
Text: (§1) This experiment used the CellTiter-Glo® Luminescent Cell Viability Assay kit from Promega to evaluate the inhibitory activity of the disclosed compounds on the proliferation of the following cell lines: 4T1 (mouse breast cancer cell line), A20 (mouse B-cell lymphoma cell line), A2780 (human ovarian cancer cell line), AsPC-1 (pancreatic cancer cell line), B16F10 (mouse melanoma cell line), BT549 (human breast cancer cell line), CT26 (mouse colon cancer cell line), EMT6 (mouse breast cancer cell line), HCT116 (colorectal cancer cell line), Jurket (acute leukemia cell line), KP-4 (pancreatic cancer cell line), LL/2 (mouse lung cancer cell line), MCF7 (breast cancer cell line), […] NCI-H358 (lung cancer cell line), NCI-H727 (gastric cancer cell line), NCI-1944 (lung cancer cell line), Pan 04.03 (pancreatic cancer cell line), SK-BR-3 (breast cancer cell line), THP-1 (leukemia cell line), TOV21G (ovarian cancer cell line), U87MG (glioblastoma cell line), and UM-UC-a (bladder cancer cell line).
(§2) All cell lines were purchased from Nanjing Kebai Biotechnology Co., Ltd. The following materials were also used in the experiment: RPMI-1640 media (HyClone, catalog number #SH30022.01), McCoy's 5A media (Thermo Fisher, catalog number #16600-082), MCDB 105 media (Sigma, catalog number #117-500), Medium 199 (Thermo Fisher, catalog number #11150-059), MEM media (Thermo Fisher, catalog number #11095-080), DMEM media (HyClone, catalog number #SH30027.01), fetal bovine serum (FBS) (ExCell, catalog number # M4530), Sodium Pyruvate (100Mm) (Thermo Fisher, catalog number #11360-070), and MEM NEAA (100X) (Thermo Fisher). […]
(§3) Cells were cultured according to the instructions provided by the cell supplier (Nanjing Kebai Biotechnology Co., Ltd.). […] Suspension or adherent cells were collected, and cell viability was determined using the trypan blue exclusion method, ensuring that cell viability was above 90%. […]

NCI-H358 = assay: CellTiter-Glo cell proliferation inhibition, NCI-H358; format: cell-based; details: Homo sapiens; NCI-H358 (lung cancer cell line), 2D, 72 hours; read-out: Example IC50 (µM) NCI-H358(2D)
Text: as §1, §2, §3

IC50 (NCI-H358) [µM]	Compound	IC50 (A20) [µM]
0.074	O=C(Nc1ccc(-c2csc(CO)c2)cc1)C(=O)Nc1ccc(-c2cc3cc(F)c(-c4nnn[nH]4)cc3n2C2CCC2)cc1 [Example 1]	0.077
0.072	CC1(n2c(-c3ccc(NC(=O)C(=O)Nc4ccc(N5CCC6(CCOC6)CC5)cc4)cc3)cc3cc(F)c(-c4nnn[nH]4)cc32)CCC1 [Example 68]	0.075
0.063	O=C(Nc1ccc(-c2cc3cc(F)c(-c4nnn[nH]4)cc3n2C2CCC2)cc1)C(=O)Nc1ccc(N2CCC3(CCC(O)C3)CC2)cc1 (stereo not drawn) [Example 100]	0.128
